Assay results as given in ChEMBL document CHEMBL2331514, “Structure-based design and synthesis of novel pseudosaccharine derivatives as antiproliferative agents and kinase inhibitors” (Eur J Med Chem, 2013).

Legend:
Assay type in all cases: functional
IGROV-1 = assay: Cytotoxicity against human IGROV1 cells assessed as growth inhibition at 10 uM after 48 hrs by SRB assay; details: IGROV-1, 48 h, read-out: GI
CCRF-CEM = assay: Cytotoxicity against human CCRF-CEM cells assessed as growth inhibition at 10 uM after 48 hrs by SRB assay; details: read-out: GI
NCI-H460 = assay: Cytotoxicity against human NCI-H460 cells assessed as growth inhibition at 10 uM after 48 hrs by SRB assay; details: NCI-H460, 48 h, read-out: GI
KM12 = assay: Cytotoxicity against human KM12 cells assessed as growth inhibition at 10 uM after 48 hrs by SRB assay; details: KM12, 48 h, read-out: GI
PC-3 = assay: Cytotoxicity against human PC3 cells assessed as growth inhibition at 10 uM after 48 hrs by SRB assay; details: PC-3, 48 h, read-out: GI
NCI-H522 = assay: Cytotoxicity against human NCI-H522 cells assessed as growth inhibition at 10 uM after 48 hrs by SRB assay; details: NCI-H522, 48 h, read-out: GI
MDA-MB-435 = assay: Cytotoxicity against human MDA-MB-435 cells assessed as growth inhibition at 10 uM after 48 hrs by SRB assay; details: MDA-MB-435, 48 h, read-out: GI
A549 = assay: Cytotoxicity against human A549/ATCC cells assessed as growth inhibition at 10 uM after 48 hrs by SRB assay; details: A549, 48 h, read-out: GI
SK-MEL-2 = assay: Cytotoxicity against human SK-MEL-2 cells assessed as growth inhibition at 10 uM after 48 hrs by SRB assay; details: SK-MEL-2, 48 h, read-out: GI
OVCAR-3 = assay: Cytotoxicity against human OVCAR3 cells assessed as growth inhibition at 10 uM after 48 hrs by SRB assay; details: OVCAR-3, 48 h, read-out: GI
BT-549 = assay: Cytotoxicity against human BT549 cells assessed as growth inhibition at 10 uM after 48 hrs by SRB assay; details: BT-549, 48 h, read-out: GI
DU-145 = assay: Cytotoxicity against human DU145 cells assessed as growth inhibition at 10 uM after 48 hrs by SRB assay; details: DU-145, 48 h, read-out: GI
MOLT-4 = assay: Cytotoxicity against human MOLT4 cells assessed as growth inhibition at 10 uM after 48 hrs by SRB assay; details: MOLT-4, 48 h, read-out: GI
MCF7 = assay: Cytotoxicity against human MCF7 cells assessed as growth inhibition at 10 uM after 48 hrs by SRB assay; details: MCF7, 48 h, read-out: GI
CAKI-1 = assay: Cytotoxicity against human Caki1 cells assessed as growth inhibition at 10 uM after 48 hrs by SRB assay; details: CAKI-1, 48 h, read-out: GI
HT-29 = assay: Cytotoxicity against human HT-29 cells assessed as growth inhibition at 10 uM after 48 hrs by SRB assay; details: HT-29, 48 h, read-out: GI
U-251 = assay: Cytotoxicity against human U251 cells assessed as growth inhibition at 10 uM after 48 hrs by SRB assay; details: U-251, 48 h, read-out: GI
TK-10 = assay: Cytotoxicity against human TK10 cells assessed as growth inhibition at 10 uM after 48 hrs by SRB assay; details: TK-10, 48 h, read-out: GI
NCI-H226 = assay: Cytotoxicity against human NCI-H226 cells assessed as growth inhibition at 10 uM after 48 hrs by SRB assay; details: NCI-H226, 48 h, read-out: GI
SNB-75 = assay: Cytotoxicity against human SNB75 cells assessed as growth inhibition at 10 uM after 48 hrs by SRB assay; details: SNB-75, 48 h, read-out: GI
SF-295 = assay: Cytotoxicity against human SF295 cells assessed as growth inhibition at 10 uM after 48 hrs by SRB assay; details: SF-295, 48 h, read-out: GI
RPMI-8226 = assay: Cytotoxicity against human RPMI8226 cells assessed as growth inhibition at 10 uM after 48 hrs by SRB assay; details: RPMI-8226, 48 h, read-out: GI
UACC-62 = assay: Cytotoxicity against human UACC62 cells assessed as growth inhibition at 10 uM after 48 hrs by SRB assay; details: UACC-62, 48 h, read-out: GI
T47D = assay: Cytotoxicity against human T47D cells assessed as growth inhibition at 10 uM after 48 hrs by SRB assay; details: read-out: GI
HL-60(TB) = assay: Cytotoxicity against human HL-60(TB) cells assessed as growth inhibition at 10 uM after 48 hrs by SRB assay; details: HL-60, 48 h, read-out: GI
SK-MEL-28 = assay: Cytotoxicity against human SK-MEL-28 cells assessed as growth inhibition at 10 uM after 48 hrs by SRB assay; details: SK-MEL-28, 48 h, read-out: GI
MDA-MB-231 = assay: Cytotoxicity against human MDA-MB-231 cells assessed as growth inhibition at 10 uM after 48 hrs by SRB assay; details: MDA-MB-231, 48 h, read-out: GI
OVCAR-5 = assay: Cytotoxicity against human OVCAR5 cells assessed as growth inhibition at 10 uM after 48 hrs by SRB assay; details: OVCAR-5, 48 h, read-out: GI
[1] = Cytotoxicity against human NCI-ADR-RES cells assessed as growth inhibition at 10 uM after 48 hrs by SRB assay; details: read-out: GI
SN12C = assay: Cytotoxicity against human SN12C cells assessed as growth inhibition at 10 uM after 48 hrs by SRB assay; details: read-out: GI
SK-MEL-5 = assay: Cytotoxicity against human SK-MEL-5 cells assessed as growth inhibition at 10 uM after 48 hrs by SRB assay; details: SK-MEL-5, 48 h, read-out: GI
LOX IMVI = assay: Cytotoxicity against human LOXIMVI cells assessed as growth inhibition at 10 uM after 48 hrs by SRB assay; details: read-out: GI
ACHN = assay: Cytotoxicity against human ACHN cells assessed as growth inhibition at 10 uM after 48 hrs by SRB assay; details: read-out: GI
SR = assay: Cytotoxicity against human SR cells assessed as growth inhibition at 10 uM after 48 hrs by SRB assay; details: read-out: GI
M14 = assay: Cytotoxicity against human M14 cells assessed as growth inhibition at 10 uM after 48 hrs by SRB assay; details: M14, 48 h, read-out: GI
HOP-92 = assay: Cytotoxicity against human HOP92 cells assessed as growth inhibition at 10 uM after 48 hrs by SRB assay; details: HOP-92, 48 h, read-out: GI
MDA-MB-468 = assay: Cytotoxicity against human MDA-MB-468 cells assessed as growth inhibition at 10 uM after 48 hrs by SRB assay; details: MDA-MB-468, 48 h, read-out: GI

Compound	inhibition of growth at 10 µM (IGROV-1) [%]	inhibition of growth at 10 µM (CCRF-CEM) [%]	inhibition of growth at 10 µM (NCI-H460) [%]	inhibition of growth at 10 µM (KM12) [%]	inhibition of growth at 10 µM (PC-3) [%]	inhibition of growth at 10 µM (NCI-H522) [%]	inhibition of growth at 10 µM (MDA-MB-435) [%]	inhibition of growth at 10 µM (A549) [%]	inhibition of growth at 10 µM (SK-MEL-2) [%]	inhibition of growth at 10 µM (OVCAR-3) [%]	inhibition of growth at 10 µM (BT-549) [%]	inhibition of growth at 10 µM (DU-145) [%]	inhibition of growth at 10 µM (MOLT-4) [%]	inhibition of growth at 10 µM (MCF7) [%]	inhibition of growth at 10 µM (CAKI-1) [%]	inhibition of growth at 10 µM (HT-29) [%]	inhibition of growth at 10 µM (U-251) [%]	inhibition of growth at 10 µM (TK-10) [%]	inhibition of growth at 10 µM (NCI-H226) [%]	inhibition of growth at 10 µM (SNB-75) [%]	further results
COc1ccc(NC(=O)Nc2ccc(NC3=NS(=O)(=O)c4ccccc43)cc2)cc1	-6	14	1	-1	-5	0	6	-10	-4	-2	15	3	11	13	-1	17	14	-4	-3	1	inhibition of growth at 10 µM (SF-295): 18%; inhibition of growth at 10 µM (RPMI-8226): 4%; inhibition of growth at 10 µM (UACC-62): -3%; inhibition of growth at 10 µM (T47D): 5%; inhibition of growth at 10 µM (HL-60(TB)): 10%; inhibition of growth at 10 µM (SK-MEL-28): -4%; inhibition of growth at 10 µM (MDA-MB-231): -13%; inhibition of growth at 10 µM (OVCAR-5): -10%; inhibition of growth at 10 µM [1]: -6%; inhibition of growth at 10 µM (SN12C): 5%; inhibition of growth at 10 µM (SK-MEL-5): 14%; inhibition of growth at 10 µM (LOX IMVI): 1%; inhibition of growth at 10 µM (ACHN): -3%; inhibition of growth at 10 µM (SR): 11%; inhibition of growth at 10 µM (M14): -8%; inhibition of growth at 10 µM (HOP-92): -13%; inhibition of growth at 10 µM (MDA-MB-468): -7%
O=C(Nc1ccccc1)Nc1ccc(NC2=NS(=O)(=O)c3ccccc32)cc1	-14	5	-3	-6	-3	-6	0	3	-14	-11	3	-1	4	10	2	1	1	-12	10	19	inhibition of growth at 10 µM (SF-295): 1%; inhibition of growth at 10 µM (RPMI-8226): -2%; inhibition of growth at 10 µM (UACC-62): -7%; inhibition of growth at 10 µM (T47D): 10%; inhibition of growth at 10 µM (HL-60(TB)): 5%; inhibition of growth at 10 µM (SK-MEL-28): -10%; inhibition of growth at 10 µM (MDA-MB-231): 11%; inhibition of growth at 10 µM (OVCAR-5): -2%; inhibition of growth at 10 µM [1]: -2%; inhibition of growth at 10 µM (SN12C): 0%; inhibition of growth at 10 µM (SK-MEL-5): 6%; inhibition of growth at 10 µM (LOX IMVI): 2%; inhibition of growth at 10 µM (ACHN): -8%; inhibition of growth at 10 µM (SR): 3%; inhibition of growth at 10 µM (M14): -3%; inhibition of growth at 10 µM (HOP-92): 1%; inhibition of growth at 10 µM (MDA-MB-468): -11%
O=C(Nc1ccc(OC2=NS(=O)(=O)c3ccccc32)cc1)Nc1ccccc1Cl	0	57	-4	10	9	10	5	7	-1	3	22	3	24	23	6	4	0	-17	25	18	inhibition of growth at 10 µM (SF-295): 8%; inhibition of growth at 10 µM (RPMI-8226): 7%; inhibition of growth at 10 µM (UACC-62): 16%; inhibition of growth at 10 µM (T47D): 8%; inhibition of growth at 10 µM (HL-60(TB)): 25%; inhibition of growth at 10 µM (SK-MEL-28): -8%; inhibition of growth at 10 µM (MDA-MB-231): 63%; inhibition of growth at 10 µM (OVCAR-5): 3%; inhibition of growth at 10 µM [1]: 13%; inhibition of growth at 10 µM (SN12C): 17%; inhibition of growth at 10 µM (SK-MEL-5): 9%; inhibition of growth at 10 µM (LOX IMVI): 15%; inhibition of growth at 10 µM (ACHN): 21%; inhibition of growth at 10 µM (SR): 9%; inhibition of growth at 10 µM (M14): 2%; inhibition of growth at 10 µM (HOP-92): -3%; inhibition of growth at 10 µM (MDA-MB-468): 8%
Cc1ccc(NC2=NS(=O)(=O)c3ccc(NC(=O)CCC(=O)O)cc32)cc1	-12	2	-7	-13	-2	-8	0	-7	-6	-16	-8	-11	-3	8	1	-3	0	-16	13	21	inhibition of growth at 10 µM (SF-295): 1%; inhibition of growth at 10 µM (RPMI-8226): 7%; inhibition of growth at 10 µM (UACC-62): 6%; inhibition of growth at 10 µM (T47D): 5%; inhibition of growth at 10 µM (HL-60(TB)): 9%; inhibition of growth at 10 µM (SK-MEL-28): -2%; inhibition of growth at 10 µM (MDA-MB-231): 6%; inhibition of growth at 10 µM (OVCAR-5): 1%; inhibition of growth at 10 µM [1]: -3%; inhibition of growth at 10 µM (SN12C): 6%; inhibition of growth at 10 µM (SK-MEL-5): 5%; inhibition of growth at 10 µM (LOX IMVI): 1%; inhibition of growth at 10 µM (ACHN): -5%; inhibition of growth at 10 µM (SR): -5%; inhibition of growth at 10 µM (M14): -2%; inhibition of growth at 10 µM (HOP-92): 9%; inhibition of growth at 10 µM (MDA-MB-468): -6%
